Measured values as given in PMC6539005, “Half-Wave Potentials and In Vitro Cytotoxic Evaluation of 3-Acylated 2,5-Bis(phenylamino)-1,4-benzoquinones on Cancer Cells” (Molecules, 2019).

Key:
[1] = Half-wave potentials by cyclic voltammetry in acetonitrile; type: physicochemical; conditions: rt, Pt electrode, vs non-aqueous Ag/Ag+, given as negative of potential; for −E^I 1/2: first one-electron reduction, 0.1 M tetraethylammonium tetrafluoroborate; for −E^II 1/2: second one-electron reduction
Description: The members of the 3-acyl-2,5-bis(phenylamino)-1,4-benzoquinone series 2a–q were evaluated for their half-wave potentials (E^I 1/2 and E^II 1/2). They were measured by cyclic voltammetry in acetonitrile at room temperature, using a platinum electrode and 0.1 M tetraethylamoniumtetrafluoroborate as the supporting electrolyte. The voltammograms were run in the potential range from 0.0 to −2.0 V versus non-aqueous Ag/Ag^+.

[2] = test system: T24 (bladder) cells; assay: MTT cytotoxicity assay, T24; type: cell-based, human; conditions: Homo sapiens, 48 h incubation (b12: 72 h), n = 3, read-out: IC50 ± SEM T24
Description: (§1) The 3-acyl-2,5-bis(phenylamino)-1,4-benzoquinones 2a–q were evaluated for their in vitro cytotoxic activities against normal human embryonic kidney cells (HEK-293 cells) and two human cancer cell lines (T24 and DU-145 cells) in 72 h drug exposure assays. The cytotoxic activities of the new compounds were measured using conventional microculture tetrazolium reduction assays. The cytotoxic activities are expressed in terms of IC50. Doxorubicin, a clinically used anti-cancer agent, was taken as a positive control.
(§2) Human cancer cell lines T24 (bladder) and DU-145 (prostate), and non-tumor HEK-293 cells were obtained from the American Type Culture Collection (ATCC, Manassas, VA, USA). The cultures were maintained at a density of 1× 10^5 cells/mL and the medium was changed at 48- to 72-h intervals. They were cultured in high-glucose Dulbecco’s modified Eagle medium (Gibco, Grand Island, NY, USA) supplemented with 10% fetal calf serum, penicillin (100 U/mL), and streptomycin (100 μg/mL). All cultures were kept at 37 °C in 95% air/5% CO2 at 100% humidity. Phosphate-buffered saline (PBS) was purchased from Gibco. Cells were incubated at the indicated times at 37 °C, with or without quinones at various concentrations.
(§3) The cytotoxicity of the quinones was assessed by following the reduction of MTT (3-(4,5-Dimethylthiazol-2-yl)-2,5-diphenyltetrazolium bromide) to formazan blue. Cells were seeded into 96-well plates at a density of 10,000 cells/well for 24 h and then incubated for 48 h, with or without the quinone derivatives. Doxorubicin was used as the standard chemotherapeutic agent (positive control). Cells were then washed twice with warm PBS and incubated with MTT (0.5 mg/mL) for 2 hours at 37 °C. Blue formazan crystals were solubilized by adding 100 µL DMSO/well, and the optical density of the coloured solutions was subsequently read at 550 nm. Results are expressed as percentage of MTT reduction, compared to untreated control conditions. The IC50 values were calculated using the GraphPad Prism software (San Diego, CA, USA).

[3] = test system: DU-145 (prostate) cells; assay: MTT cytotoxicity assay, DU-145; type: cell-based; conditions: Homo sapiens, 48 h incubation (b12: 72 h), n = 3, read-out: IC50 ± SEM DU-145
Description: as §1, §2, §3

[4] = test system: HEK-293 kidney cells; assay: MTT cytotoxicity assay, HEK-293; type: cell-based; conditions: Homo sapiens, HEK293, non-tumor cells, 48 h incubation (b12: 72 h), n = 3, read-out: IC50 ± SEM HEK-293
Description: as §1, §2, §3

[5] = test system: T24 and DU-145 cells; assay: MTT cytotoxicity assay, both cancer cell lines; type: cell-based; conditions: Homo sapiens; mean of T24 and DU-145 IC50
Description: as §1, §2, §3

[6] = test system: BCL2; assay: qPCR relative gene expression in T24 cells, BCL2; type: cell-based, human; conditions: 48 h; 2c at 32 µM, 2d at 68 µM; normalized to B2M, 2^−ΔΔCt vs vehicle; mean ± SEM, n = 5
Description: (§4) The T24 cells were cultured as previously mentioned. They were seeded into 6-well plates (2 × 10^5 cells/well) and, after 24 h of incubation, they were treated for 48 h with 2c and 2d (at 32 and 68 µM, respectively). Afterwards, they were washed with phosphate-buffered saline. The cellular lysate was prepared with E.Z.N.A.® RNA-Lock Reagent (Omega Bio-tek, Norcross, GA, USA) to preserve and immediately stabilize the total RNA for the subsequent gene expression assays. The total RNA isolated from the cells using the E.Z.N.A.® HP Total RNA Isolation Kit (Omega Bio-tek) was reverse-transcribed to cDNA using the AffinityScript QPCR cDNA Synthesis Kit (Agilent Technologies, Santa Clara, CA, USA) and 1000 ng of the RNA sample.
(§5) The cDNA synthesized was employed for qPCR using Brilliant III Ultra-Fast SYBR® Green QPCR Master Mix (Agilent Technologies) in a Mx3000P qPCR System (Agilent Technologies), employing a 96-well plate with 20 μL of PCR reaction per well and 10 pmol each of forward and reverse gene-specific primers. Ten genes were analyzed (see Table 4). The relative gene expressions were determined using Beta-2-microglobulin (B2M) as housekeeping, and the delta-delta Ct method (2^−ΔΔCt method) with regard to the vehicle-treated group (i.e., the reference group). Five biological replicates were used from each group (treated and reference group). […]

[7] = test system: mTOR; assay: qPCR relative gene expression in T24 cells, mTOR; type: cell-based, human; conditions: 48 h; 2c at 32 µM, 2d at 68 µM; normalized to B2M, 2^−ΔΔCt vs vehicle; mean ± SEM, n = 5
Description: as §4, §5

[8] = test system: GSTP1; assay: qPCR relative gene expression in T24 cells, GSTP1; type: cell-based, human; conditions: 48 h; 2c at 32 µM, 2d at 68 µM; normalized to B2M, 2^−ΔΔCt vs vehicle; mean ± SEM, n = 5
Description: as §4, §5

[9] = test system: GSR; assay: qPCR relative gene expression in T24 cells, GSR; type: cell-based, human; conditions: 48 h; 2c at 32 µM, 2d at 68 µM; normalized to B2M, 2^−ΔΔCt vs vehicle; mean ± SEM, n = 5
Description: as §4, §5

[10] = test system: CDC25A; assay: qPCR relative gene expression in T24 cells, CDC25A; type: cell-based, human; conditions: 48 h; 2c at 32 µM, 2d at 68 µM; normalized to B2M, 2^−ΔΔCt vs vehicle; mean ± SEM, n = 5
Description: as §4, §5

[11] = test system: TP53; assay: qPCR relative gene expression in T24 cells, TP53; type: cell-based, human; conditions: 48 h; 2c at 32 µM, 2d at 68 µM; normalized to B2M, 2^−ΔΔCt vs vehicle; mean ± SEM, n = 5
Description: as §4, §5

[12] = test system: HRAS; assay: qPCR relative gene expression in T24 cells, HRAS; type: cell-based, human; conditions: 48 h; 2c at 32 µM, 2d at 68 µM; normalized to B2M, 2^−ΔΔCt vs vehicle; mean ± SEM, n = 5
Description: as §4, §5

[13] = test system: HDAC3; assay: qPCR relative gene expression in T24 cells, HDAC3; type: cell-based, human; conditions: 48 h; 2c at 32 µM, 2d at 68 µM; normalized to B2M, 2^−ΔΔCt vs vehicle; mean ± SEM, n = 5
Description: as §4, §5

[14] = test system: HDAC4; assay: qPCR relative gene expression in T24 cells, HDAC4; type: cell-based, human; conditions: 48 h; 2c at 32 µM, 2d at 68 µM; normalized to B2M, 2^−ΔΔCt vs vehicle; mean ± SEM, n = 5
Description: as §4, §5

[15] = test system: human colon adenocarcinoma; design: method as in PMID 3746824; conditions: cited from earlier work
[16] = test system: leukemia L1210; design: method as in PMID 3746824; conditions: cited from earlier work

−E^I 1/2 [1] | −E^II 1/2 [1] | Structure (SMILES) | IC50 [2] | IC50 [3] | IC50 [4] | IC50 [5] | Relative Expression Levels in T24 Cells, BCL2 [6] | Relative Expression Levels in T24 Cells, mTOR [7] | Relative Expression Levels in T24 Cells, GSTP1 [8] | Relative Expression Levels in T24 Cells, GSR [9] | Relative Expression Levels in T24 Cells, CDC25A [10] | Relative Expression Levels in T24 Cells, TP53 [11] | Relative Expression Levels in T24 Cells, HRAS [12] | Relative Expression Levels in T24 Cells, HDAC3 [13] | Relative Expression Levels in T24 Cells, HDAC4 [14] | in vitro inhibitory activity against human colon adenocarcinoma proliferation [15] | activity against the leukemia L1210 screening in vitro [16]
590 mV | 910 mV | CCCCCCCC(=O)C1=C(Nc2ccccc2)C(=O)C=C(Nc2ccccc2)C1=O [2d, 3-Octanoyl-2,5-bis(phenylamino)-1,4-benzoquinone] | 34 ± 3.7 µM | 23.5 ± 2.1 µM | > 100 µM | 28.7 µM | 0.8 ± 0.04 | 0.95 ± 0.02 | 1.21 ± 0.04 | 1.07 ± 0.04 | 1.07 ± 0.03 | 1.01 ± 0.04 | 1.33 ± 0.06 | 1.02 ± 0.05 | 1.01 ± 0.02 |  | 
570 mV | 1090 mV | CCCCCC(=O)C1=C(Nc2ccccc2)C(=O)C=C(Nc2ccccc2)C1=O [2c, 3-Hexanoyl-2,5-bis(phenylamino)-1,4-benzoquinone] | 16.3 ± 1.7 µM | 45.2 ± 4.5 µM | > 100 µM | 30.7 µM | 1.28 ± 0.15 | 0.99 ± 0.13 | 0.9 ± 0.08 | 0.96 ± 0.05 | 1.54 ± 0.13 | 1.06 ± 0.11 | 1.07 ± 0.13 | 1.03 ± 0.15 | 1.08 ± 0.13 |  | 
 |  | CC(C)c1ccc(NC2=C(Cl)C(=O)C(Nc3ccc(C(C)C)cc3)=C(Cl)C2=O)cc1 [B] |  |  |  |  |  |  |  |  |  |  |  |  |  | good in vitro inhibitory activity | active
